Reference: paper PMC2880636 (Journal of medicinal chemistry, 2009)

Legend:
morphine antinociception = test: warm-water tail immersion test, blockade of morphine antinociception; settings: sc, 5 min before morphine 10 mg/kg sc; 56 °C; tested 20 min later
μ opioid receptor (MOR) = μ opioid receptor (MOR) (Mus musculus, UniProt P42866); test: competitive radioligand binding, [3H]naloxone, monocloned receptor in CHO cells
MOR = MOR (Mus musculus, UniProt P42866); test: 35S-GTP[γS]-binding functional assay in MOR expressing CHO cells; format: biochemical; settings: Emax relative to full agonist DAMGO (3 μM)
W318A mutant MOR = W318A mutant MOR (Mus musculus, UniProt P42866, W318A); format: binding
antinociception = test: warm-water tail immersion test, agonist; settings: doses up to 100 mg/kg

Chain of μ opioid receptor (MOR) (P42866 whole entry): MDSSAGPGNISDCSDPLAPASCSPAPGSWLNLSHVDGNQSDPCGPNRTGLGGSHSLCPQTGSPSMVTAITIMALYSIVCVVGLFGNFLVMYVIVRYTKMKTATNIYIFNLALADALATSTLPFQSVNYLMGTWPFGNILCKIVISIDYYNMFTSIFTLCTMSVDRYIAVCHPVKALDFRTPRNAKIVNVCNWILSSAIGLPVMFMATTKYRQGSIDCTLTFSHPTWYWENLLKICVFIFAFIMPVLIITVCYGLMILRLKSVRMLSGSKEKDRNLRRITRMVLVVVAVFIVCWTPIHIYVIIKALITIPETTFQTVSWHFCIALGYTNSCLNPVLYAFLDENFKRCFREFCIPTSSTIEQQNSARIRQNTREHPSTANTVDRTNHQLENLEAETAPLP
Chain of W318A mutant MOR (P42866 whole entry W318A): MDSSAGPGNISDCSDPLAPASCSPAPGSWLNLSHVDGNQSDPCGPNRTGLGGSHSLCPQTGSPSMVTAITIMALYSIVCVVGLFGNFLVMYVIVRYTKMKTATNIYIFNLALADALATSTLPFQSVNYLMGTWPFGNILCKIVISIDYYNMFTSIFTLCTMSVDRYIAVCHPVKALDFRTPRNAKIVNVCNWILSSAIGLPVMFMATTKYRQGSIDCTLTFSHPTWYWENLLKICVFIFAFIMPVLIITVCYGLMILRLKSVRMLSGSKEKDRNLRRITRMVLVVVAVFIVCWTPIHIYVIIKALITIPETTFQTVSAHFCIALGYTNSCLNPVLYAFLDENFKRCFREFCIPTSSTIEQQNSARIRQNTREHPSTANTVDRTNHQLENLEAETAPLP
Chain of MOR (P42866 whole entry): as the sequence (P42866 whole entry) above

Row | Compound | AD50 value (mg/kg (95% CL)) for blockade of morphine antinociception (morphine antinociception) | other results
1 | O=C(N[C@@H]1CC[C@@]2(O)[C@H]3Cc4ccc(O)c5c4[C@@]2(CCN3CC2CC2)[C@H]1O5)c1cc2ccccc2cn1 [Compound 10] | inactive | 
2 | O=C(N[C@@H]1CC[C@@]2(O)[C@H]3Cc4ccc(O)c5c4[C@@]2(CCN3CC2CC2)[C@H]1O5)c1cnc2ccccc2c1 [Compound 14, 17-Cyclopropylmethyl-3,14β-dihydroxy-4,5α-epoxy-6β-[(3′-quinolyl)acetamido]morphinan] | 42.55 (23.67–76.51) mg/kg | 
3 | O=C(N[C@H]1CC[C@@]2(O)[C@H]3Cc4ccc(O)c5c4[C@@]2(CCN3CC2CC2)[C@H]1O5)c1cc2ccccc2cn1 [Compound 9, 17-Cyclopropylmethyl-3,14β-dihydroxy-4,5α-epoxy-6α-[(3′-isoquinolyl)acetamido]morphinan] | 0.45 (0.27–0.78) mg/kg | selectivity for the MOR over the DOR (μ opioid receptor (MOR)): over 200 fold; selectivity for the MOR over the KOR (μ opioid receptor (MOR)): approximately 50 fold; % max of DAMGO (MOR): approximately 20%; IC50 (W318A mutant MOR): > 1 µM; agonist effect in tail immersion test (antinociception): neither of these ligands produced any agonist effect
4 | O=C(N[C@H]1CC[C@@]2(O)[C@H]3Cc4ccc(O)c5c4[C@@]2(CCN3CC2CC2)[C@H]1O5)c1cnc2ccccc2c1 [Compound 13, 17-Cyclopropylmethyl-3,14β-dihydroxy-4,5α-epoxy-6α-[(3′-quinolyl)acetamido]morphinan] | 4.45 (2.41–8.15) mg/kg | 
5 | C=CCN1CC[C@]23c4c5ccc(O)c4O[C@H]2C(=O)CC[C@@]3(O)[C@H]1C5 [naloxone, reference compound] | 0.05 (0.03–0.09) mg/kg | 
